The record followed here is article PMC12612973, “Inhibition of Human Amylin Aggregation: In Silico and In Vitro Studies” (ACS Omega, 2025).

Each structure is given as a SMILES string. Values joined by “and” are separate entries in the source; they are usually repeats but may differ in a detail not shown here. Equal values may be shown once.

The target in data set [1] is T1, human amylin (hIAPP) (Homo sapiens, UniProt P10997).
T1 construct: purchased Bachem USA
T1 sequence (P10997 34-70 limits assumed): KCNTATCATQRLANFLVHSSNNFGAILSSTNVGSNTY
Description: Thioflavin T (ThT) fluorescence assay of amylin aggregation. Format: biochemical. To be noted: for inhibition at 10 µM: read-out: ThT inhibition % (mean ± SEM), compound 10 μM, amylin 15 μM, 36 h incubation, 3 trials; for ThT inhibition % (mean ± SEM): compound 10 μM, amylin 15 μM, 36 h incubation, 3 trials. The procedure: (§1) A stock solution of amylin (1 mM) (purchased from Bachem USA), peptide sequence: […] amide (with disulfide bond between Cys2 and Cys7), was prepared in 100% hexafluoroisopropyl alcohol (HFIP) (purchased from Sigma-Aldrich) and stored at −20 °C. , Aliquots of amylin peptide were filtered through a 0.22 μm filter from the stock solution and freeze-dried. For kinetic experiments, 15 μM of amylin was prepared in 50 mM Tris-HCl buffer (pH 7.4), as investigated in previous studies by Chaari et al., , Samples of amylin were prepared in the presence or absence of inhibitors. Each compound was dissolved in DMSO and further diluted with the buffer used to solubilize the amylin. The final mixture contained 15 μM amylin, 10 μM of the test compound, 2% DMSO or 15 μM amylin, and 2% DMSO without the compound (negative control). Also 15 μM amylin, 10 μM of oleuropein aglycone and 2% DMSO was used as a positive control. The prepared solutions were incubated under physiological conditions (pH 7.4 and 37 °C) for amylin aggregation. Samples were incubated for 36 h to test for amylin aggregation, and measurements were conducted at different time points.
Amylin aggregation was monitored by characteristic changes in Thioflavin T (ThT) fluorescence intensity. A ThT stock solution (15 μM) was prepared in deionized water at pH 7.4. The amylin samples were mixed with the ThT solution and allowed to incubate. ThT fluorescence was measured using the PerkinElmer model LS 55 fluorescence spectrophotometer (PerkinElmer, USA), with an excitation wavelength of 440 nm and an emission wavelength of 480 nm. ,− The emission and excitation slits were set to 5 nm, and a 1 cm cuvette was used for all experiments. Nonspecific background fluorescence was subtracted from the samples using appropriate blanks in the absence of proteins. Each experiment was performed in triplicate.

The target in data set [2] is T1, human amylin (hIAPP). Description: Dynamic light scattering (DLS) assay of amylin aggregation. Particulars: 36 h incubation; for inhibition at 10 µM: compound 10 μM, amylin 15 μM, 3 trials, read-out: DLS inhibition % (mean ± SEM). The format is biochemical. The procedure: as §1
DLS (Zetasizer, Malvern) was used at a wavelength of 633 nm to measure the average diffusion coefficient distribution of amylin particles and the aggregation percentage. Samples were diluted 10-fold, and 50 μL was placed into a 96-well plate. The total light scattering intensity at a 90° angle was collected using a 10 s averaging acquisition time. Particle translational diffusion coefficients were calculated from autocorrelated light intensity data (usually 30–40 points) and converted to the hydrodynamic radius (R h) using the Stokes–Einstein equation. A distribution plot of intensity versus R h was calculated using the Sedfit 9.3 analysis software, and intensity-weighted mean R h values were obtained from each peak.

The target in data set [3] is T1, human amylin (hIAPP). Description: Kinetic analysis of amylin aggregation (ThT, two-step autocatalytic aggregation model). The format is biochemical. Particulars: mean ± S.D.; for t 0 (time point when the aggregation starts): 10% of highest ThT fluorescence; for t 1/2 (aggregation halftime): 50% of highest ThT fluorescence; for t 1 (aggregation endpoint): 90% of highest ThT fluorescence; for k / k e (elongation constant) / k n (nucleation constant) / ρ (ratio of kn to k): ThT data, autocatalytic aggregation model. On the procedure: Kinetic analysis was performed according to the model of autocatalytic aggregation. According to Sabaté et al., aggregation is a two-step process, comprising nucleation (described by the k n constant) and fibrillation phases (represented by the k e constant). Two constants (k n and k e) are calculated using the eq : 5 f=ρ{e^[(1+ρ)kt]−1}/{1+ρe^[(1+ρ)kt]} where k = k e a (where a represents the initial concentration of the aggregating peptide), f stands for a fraction of the fibrillar form in the system, and ρ denotes the dimensionless ratio of k n to k. The parameters k and ρ were calculated first, then k n and k e.
Data were normalized as a fraction of the highest fluorescence from the three trials and fitted into the model of autocatalytic aggregation. The same procedure was repeated for the remaining trials. The second calculation aimed to find the time parameters of the aggregation process: t 0 (time point when the aggregation starts), t 1/2 (aggregation halftime), and t 1 (aggregation endpoint). t 0, t 1/2, and t 1 were calculated as 10%, 50%, and 90% of the highest fluorescence measurements from the three trials, respectively. All calculations were performed using GraphPad Prism 9.5.1, Statistica 13.3.721.1, and Microsoft Excel 2304.

Data set [4] addresses T1, human amylin (hIAPP). Description: Thioflavin T (ThT) fluorescence assay of amylin aggregation. The format is biochemical. To be noted: read-out: IC50 of amylin aggregation inhibition.
In data set [5] the test system is Pancreatic INS-1E cells. The experiment in a line: MTT cytotoxicity assay of amylin aggregates aged with or without inhibitors. Format: cell-based. The procedure:
In this study, we utilized Pancreatic INS-1E cells (Department of Cell Physiology and Metabolism, University Medical Center, Switzerland) due to their close physiological similarity to native β-cells, making them highly relevant to our experimental objectives. Pancreatic INS-1E cells were grown in RPMI 1640 medium, supplemented with 2 mM glutamine, 5% fetal calf serum, 10 mM HEPES (pH 7.4), 1 mM sodium pyruvate, 50 μM 2-mercaptoethanol, 100 units/mL penicillin, and 0.1 mg/mL streptomycin. The culturing environment was maintained at 37 °C, 5% CO2, pH 7.4.
The toxicity of human amylin aggregates in the presence or absence of different compounds in the presence of 2% DMSO was assessed by the 3-(4,5-dimethylthiazol-2-yl)-2,5-diphenyltetrazolium bromide (MTT) reduction assay. The cells were cultured and then seeded into 96-well plates and grown for 24 h prior to exposure to different intermediates of amylin or a mixture of amylin with the MTDLs. The final amylin concentration within the culture medium was 5 μM. Cell viability was expressed as the percentage of MTT reduction, using cells treated with the same buffer volume as a reference (100% MTT reduction). The values (averages ± S.D.) were obtained from three independent experiments.
Background: Tetrazolium dyes change colour on reduction, which living cells bring about.

For orientation: inhibition means how much of the control response was suppressed. On to `OC(CCN1CCN(C(c2ccccc2)c2ccccc2)CC1)CNCc1ccccc1` (stereo not drawn) [Compound 11], for which the inhibition at 10 µM in data set [1] was found to be 20.8 ± 0.8%; in data set [2], 19 ± 1.8%.

What is called IC50 is the midpoint of a concentration-inhibition curve. On to `CC(C)(C)c1cccc(CNCC(O)CNCC(c2ccccc2)c2ccccc2)c1` (stereo not drawn) [Compound 17], for which, in data set [1], the “ThT inhibition % (mean ± SEM)” value is 88.1 ± 0.9% and the inhibition at 10 µM is over 88%. Moreover, the inhibition at 10 µM in data set [2] amounted to 99 ± 6.5%. In data set [3], the “t 0 (time point when the aggregation starts)” value is recorded as 13.13 ± 1.09 h, the “t 1/2 (aggregation halftime)” value amounted to 21.25 ± 0.20 h, the “t 1 (aggregation endpoint)” value is given as 29.48 ± 1.02 h and the k is recorded as 0.2687 ± 0.0374 h^–1. In data set [3], the “k e (elongation constant)” value was 17913 ± 2489 M^–1h^–1, the “k n (nucleation constant)” value worked out at 0.0010 ± 0.0006 h^–1 and the “ρ (ratio of kn to k)” value is listed as 0.0040 ± 0.0028. Further, in data set [4], the IC50 was determined as 3.65 µM.

Consider `OC(CCNCC(c1ccccc1)c1ccccc1)CNCc1ccccc1` (stereo not drawn) [Compound 19], for which the results for the inhibition at 10 µM in data set [1] and in data set [2] were 33.7 ± 1.1% and 27.5 ± 3%, respectively.

Regarding `COc1ccc(CNCC(O)CCN2CCN(C(c3ccccc3)c3ccccc3)CC2)cc1` (stereo not drawn) [Compound 12], the inhibition at 10 µM in data set [1] is 11.9 ± 0.7%; in data set [2], 20.7 ± 2%.

As for `C/C=C1/C(O)OC=C(C(=O)OC)[C@H]1CC(=O)OCCc1ccc(O)c(O)c1` (mixture of isomers) [Oleuropein aglycone, reference compound], the “ThT inhibition % (mean ± SEM)” value in data set [1] is 82.3 ± 2.0%. Besides, in data set [3], the “t 0 (time point when the aggregation starts)” value is 10.76 ± 0.25 h, the “t 1/2 (aggregation halftime)” value came to 19.67 ± 0.31 h, the “t 1 (aggregation endpoint)” value stood at 28.83 ± 0.30 h and the k is given as 0.2366 ± 0.0075 h^–1. For the same compound, in data set [3], the “k e (elongation constant)” value is reported as 15773 ± 650 M^–1h^–1, the “k n (nucleation constant)” value was determined as 0.0022 ± 0.0005 h^–1 and the “ρ (ratio of kn to k)” value was found to be 0.0093 ± 0.0002. The “k e (elongation constant)” value in data set [3] (listed as oleuropein aglycone) turned out to be 15773 M^–1h^–1. For the same compound, the IC50 in data set [4] was 1 µM.

Take `COc1ccc(CNCC(O)CCN2CCN(C(c3ccc(F)cc3)c3ccc(F)cc3)CC2)cc1` (stereo not drawn) [Compound 14]: the inhibition at 10 µM in data set [1] came to 5 ± 4.4%; in data set [2] it was 7.8 ± 0.5%.

With `CCCC(C)N1CCN(CCC(O)CNCc2ccc(OC)cc2)CC1` (stereo not drawn) [Compound 8], the figures for the inhibition at 10 µM in data set [1] and in data set [2] were 20.8 ± 1% and 20.1 ± 2%, respectively.

Take `COc1ccc(CNCC(O)CCN2CCN(c3ccccc3)CC2)cc1` (stereo not drawn) [Compound 9]: the inhibition at 10 µM in data set [1] was 4.3 ± 0.7%; in data set [2] it was 10 ± 0.5%.

In the case of `CC(C)(C)c1cccc(CNCC(O)CCNCC(c2ccccc2)c2ccccc2)c1` (stereo not drawn) [Compound 21], in data set [1], the “ThT inhibition % (mean ± SEM)” value worked out at 90.8 ± 1.4% and the inhibition at 10 µM was over 88%. In addition, the inhibition at 10 µM in data set [2] was found to be 99.2 ± 6%. Besides, in data set [3], the “t 0 (time point when the aggregation starts)” value was found to be 9.54 ± 0.29 h, the “t 1/2 (aggregation halftime)” value is reported as 18.66 ± 0.56 h, the “t 1 (aggregation endpoint)” value is given as 28.19 ± 1.42 h and the k was 0.2273 ± 0.0221 h^–1. For the same compound, in data set [3], the “k e (elongation constant)” value is 15155 M^–1h^–1 and 15155 ± 1477 M^–1h^–1; the “k n (nucleation constant)” value is 0.003 h^–1 and 0.0032 ± 0.0007 h^–1; the “ρ (ratio of kn to k)” value is 0.0145 ± 0.0044. Also, the “cell viability difference versus the sample with amylin fibrils” value in data set [5] (INS-1E cells 24 h, amylin aggregates aged 36 h with 2.92 μM compound 18 or 3.31 μM compound 21) is listed as “approximately 30 % points”. For the same compound, the “effect on INS-1E cell viability in presence of amylin” value in data set [5] (INS-1E cells cultured with the MTDLs) is recorded as “retained cell viability”. The IC50 in data set [4] came out at 3.53 µM.

For the compound `COc1ccc(CNCC(O)CN2CCN(c3ccccc3)CC2)cc1` (stereo not drawn) [Compound 2], the inhibition at 10 µM in data set [1] came out at 5 ± 0.7%; in data set [2], 6.9 ± 0.5%.

As for `OC(CCNCCC(c1ccccc1)c1ccccc1)CNCc1ccccc1` (stereo not drawn) [Compound 20], the inhibition at 10 µM in data set [1] is 12.6 ± 0.4%; in data set [2] it was 20.4 ± 2.5%.

For the compound `CCCC(C)N1CCN(CC(O)CNCc2ccc(OC)cc2)CC1` (stereo not drawn) [Compound 1], the inhibition at 10 µM turned out to be 13.1 ± 1.8% in data set [1] and 19.7 ± 2% in data set [2].

On to `COc1ccc(CNCC(O)CN2CCN(Cc3ccccc3)CC2)cc1` (stereo not drawn) [Compound 3], for which the inhibition at 10 µM is 8.8 ± 4.9% in data set [1] and 17.9 ± 1.4% in data set [2].

In the case of `COc1ccc(CNCC(O)CN2CCN(C(c3ccc(F)cc3)c3ccc(F)cc3)CC2)cc1` (stereo not drawn) [Compound 7], the inhibition at 10 µM in data set [1] was 17 ± 0.7%; in data set [2], 18.6 ± 1.4%.

For the compound `OC(CNCc1ccccc1)CNCC(c1ccccc1)c1ccccc1` (stereo not drawn) [Compound 15], the values for the inhibition at 10 µM in data set [1] and in data set [2] were 37.4 ± 0.4% and 25 ± 2.5%, respectively.

Consider `OC(CNCCC(c1ccccc1)c1ccccc1)CNCc1ccccc1` (stereo not drawn) [Compound 16], for which the inhibition at 10 µM in data set [1] was 58.8 ± 0.7%. For the same compound, the “average particle size of amylin by DLS” value in data set [2] (amylin + compound) came out at 10 nm. Moreover, the inhibition at 10 µM in data set [2] was 77.9 ± 6%. In data set [3], the “t 0 (time point when the aggregation starts)” value is reported as 11.03 ± 0.22 h, the “t 1/2 (aggregation halftime)” value was 18.22 ± 0.28 h, the “t 1 (aggregation endpoint)” value is 25.52 ± 0.37 h and the k turned out to be 0.2996 ± 0.0048 h^–1. Further, in data set [3], the “k e (elongation constant)” value worked out at 19973 ± 320 M^–1h^–1, the “k n (nucleation constant)” value turned out to be 0.0012 ± 0.0001 h^–1 and the “ρ (ratio of kn to k)” value came to 0.0042 ± 0.0003. Also, in data set [4], the IC50 came to 3.1 µM.

Turning to `COc1ccc(CNCC(O)CN2CCN(C(c3ccccc3)c3ccccc3)CC2)cc1` (stereo not drawn) [Compound 5], the inhibition at 10 µM in data set [1] was 12.1 ± 1.1%; in data set [2], 19.5 ± 2.2%.

In the case of `COc1ccc(CNCC(O)CCN2CCN(Cc3ccccc3)CC2)cc1` (stereo not drawn) [Compound 10], the inhibition at 10 µM is 31.1 ± 0.9% in data set [1] and 27.8 ± 3% in data set [2].

On to `OC(CNCc1ccccc1)CN1CCN(C(c2ccccc2)c2ccccc2)CC1` (stereo not drawn) [Compound 4], for which the inhibition at 10 µM worked out at 15.5 ± 0.7% in data set [1] and 20 ± 1.9% in data set [2].
